Measurements as given in US7326718B2, “8-Substituted imidazopyridines” (Altana Pharma AG, priority 2002, dated 2008).

What was measured:
[1] = tested on: pentagastrin-stimulated acid secretion of the perfused rat stomach; test: Secretion-inhibiting action on the perfused rat stomach (pentagastrin-stimulated acid secretion, intraduodenal administration in vivo); settings: dose 1 μmol/kg i.d., anaesthetized female CD rat, pentagastrin-stimulated (1 μg/kg i.v. infusion)
Excerpt: Testing of the Secretion-Inhibiting Action on the Perfused Rat Stomach
In Table A which follows, the influence of the compounds according to the invention on the pentagastrin-stimulated acid secretion of the perfused rat stomach after intraduodenal administration in vivo is shown.
The abdomen of anaesthetized rats (CD rat, female, 200-250 g; 1.5 g/kg i.m. urethane) was opened after tracheotomy by a median upper abdominal incision and a PVC catheter was fixed transorally in the oesophagus and another via the pylorus such that the ends of the tubes just projected into the gastric lumen. The catheter leading from the pylorus led outward into the right abdominal wall through a side opening.
After thorough rinsing (about 50-100 ml), warm (37° C.) physiological NaCl solution was continuously passed through the stomach (0.5 ml/min, ph 6.8-6.9; Braun-Unita I). The pH (pH meter 632, glass electrode EA 147; φ=5 mm, Metrohm) and, by titration with a freshly prepared 0.01N NaOH solution to ph 7 (Dosimat 665 Metrohm), the secreted HCl were determined in the effluent in each case collected at an interval of 15 minutes.
The gastric secretion was stimulated by continuous infusion of 1 μg/kg (=1.65 ml/h) of i.v. pentagastrin (left femoral vein) about 30 min after the end of the operation (i.e. after determination of 2 preliminary fractions). The substances to be tested were administered intraduodenally in a 2.5 ml/kg liquid volume 60 min after the start of the continuous pentagastrin infusion.
The body temperature of the animals was kept at a constant 37.8-38° C. by infrared irradiation and heat pads (automatic, stepless control by means of a rectal temperature sensor).

| Compound | melting point [°C] | Inhibition of acid secretion (%) [1] [%] |
| --- | --- | --- |
| COC(=O)c1cc(N[C@@H]2c3ccccc3C[C@H]2O)c2nc(C)c(C)n2c1 (relative stereo) [Example 1, Methyl 8-(trans-2,3-dihydro-2-hydroxy-1-indenylamino)-2,3-dimethyl-imidazo[1,2-a]pyridine-6-carboxylate] | 261 to 262 | – |
| Cc1nc2c(O[C@@H]3c4ccccc4C[C@H]3O)cc(C(=O)N(C)C)cn2c1C (relative stereo) [Example 9, 8-(trans-2,3-Dihydro-2-hydroxy-1-indenyloxy)-6-(N,N-dimethylamino-carbonyl)-2,3-dimethyl-imidazo[1,2-a]pyridine] | – | >30 |
| COc1cccc2c1[C@@H](Oc1cc(C(=O)N(C)C)cn3c(C)c(C)nc13)[C@H](O)C2 (relative stereo) [Example 16, 8-(trans-2,3-Dihydro-2-hydroxy-7-methoxy-1-indenyloxy)-6-(N,N-dimethylamino-carbonyl)-2,3-dimethyl-imidazo[1,2-a]pyridine] | – | >30 |
| Cc1nc2c(O[C@H]3c4ccccc4C[C@@H]3O)cc(C(=O)N(C)C)cn2c1C [Example 14, 8-[(1S,2S)-2,3-Dihydro-2-hydroxy-1-indenyloxy)-6-(N,N-dimethylamino-carbonyl)-2,3-dimethyl-imidazo[1,2-a]pyridine] | – | >30 |
| Cc1cccc2c1[C@@H](Oc1cc(C(=O)N(C)C)cn3c(C)c(C)nc13)[C@H](O)C2 [Example 17] | – | >30 |

Now from value to molecule, other results behind:

| melting point [°C] | Compound | Inhibition of acid secretion (%) [1] [%] |
| --- | --- | --- |
| 246 to 249 | Cc1nc2c(N[C@@H]3c4ccccc4C[C@H]3O)cc(C(=O)O)cn2c1C (relative stereo) [Example 2, 8-(trans-2,3-Dihydro-2-hydroxy-1-indenylamino)-2,3-dimethyl-imidazo[1,2-a]pyridine-6-carboxylic acid] | – |
| 229 to 231 | Cc1nc2c(O[C@@H]3c4ccccc4C[C@H]3O)cc(C(=O)O)cn2c1C (relative stereo) [Example 8, 8-(trans-2,3-Dihydro-2-hydroxy-1-indenyloxy)-2,3-dimethyl-imidazo[1,2-a]pyridine-6-carboxylic acid] | – |
| 142 to 143 | COCc1cc(O[C@@H]2c3ccccc3C[C@H]2O)c2nc(C)c(C)n2c1 (relative stereo) [Example 11, 8-(trans-2,3-Dihydro-2-hydroxy-1-indenyloxy)-6-methoxymethyl-2,3-dimethyl-imidazo[1,2-a]pyridine] | >30 |
| 129 | Cc1nc2c(O[C@@H]3c4ccccc4CC[C@H]3O)cc(C(=O)N(C)C)cn2c1C.Cl (relative stereo) [Example 15, 6-(N,N-Dimethylamino-carbonyl)-2,3-dimethyl-8-(trans-1,2,3,4-tetrahydro-2-hydroxy-1-naphthalenyloxy)-imidazo[1,2-a]pyridine hydrochloride] | >30 |
